Source: ChEMBL document CHEMBL6083197, “Design, synthesis, inhibitory activity, and molecular simulations study for d-glucose-conjugated thioureas containing pyrimidine ring as multitarget inhibitors against α-amylase, α-glucosidase, DDP-4, and PTP1B in Type 2 diabetes mellitus” (RSC Med Chem, 2024)
≈ marks a conversion by molar mass, not a printed value.

What was measured:
[1] = Inhibition of alpha-amylase (unknown origin) using starch as substrate preincubated for 10 mins followed by substrate addition and measured after 10 mins by DNSA reagent based spectrophotometric assay; parameters: species or system Homo sapiens
[2] = Inhibition of alpha-glucosidase (unknown origin) using p-nitrophenyl-glucopyranoside as substrate incubated for 10 mins; parameters: species or system Homo sapiens
[3] = Inhibition of alpha-amylase (unknown origin) using starch as substrate incubated for 10 mins by DNS reagent based spectrometric assay; parameters: species or system Homo sapiens
Dipeptidyl peptidase 4 [4] = target: T1, Dipeptidyl peptidase 4 (Homo sapiens, UniProt P27487); test: Inhibition of DPP-4 (unknown origin)
Dipeptidyl peptidase 4 [5] = target: T1, Dipeptidyl peptidase 4; test: Inhibition of recombinant human DPP-4 using Gly-Pro-AMC as substrate by fluorometric assay
[6] = Inhibition of alpha-amylase (unknown origin) using starch as substrate preincubated for 10 mins followed by substrate addition and measured after 10 mins by 3, 5-dinitrosalicylic acid reagent based microplate reader assay
[7] = Inhibition of alpha-glucosidase (unknown origin) using p-nitrophenyl-alpha-D-glucoside as substrate preincubated for 5 mins followed by substrate addition and measured after 20 mins by microplate reader assay

T1 sequence (P27487 whole entry): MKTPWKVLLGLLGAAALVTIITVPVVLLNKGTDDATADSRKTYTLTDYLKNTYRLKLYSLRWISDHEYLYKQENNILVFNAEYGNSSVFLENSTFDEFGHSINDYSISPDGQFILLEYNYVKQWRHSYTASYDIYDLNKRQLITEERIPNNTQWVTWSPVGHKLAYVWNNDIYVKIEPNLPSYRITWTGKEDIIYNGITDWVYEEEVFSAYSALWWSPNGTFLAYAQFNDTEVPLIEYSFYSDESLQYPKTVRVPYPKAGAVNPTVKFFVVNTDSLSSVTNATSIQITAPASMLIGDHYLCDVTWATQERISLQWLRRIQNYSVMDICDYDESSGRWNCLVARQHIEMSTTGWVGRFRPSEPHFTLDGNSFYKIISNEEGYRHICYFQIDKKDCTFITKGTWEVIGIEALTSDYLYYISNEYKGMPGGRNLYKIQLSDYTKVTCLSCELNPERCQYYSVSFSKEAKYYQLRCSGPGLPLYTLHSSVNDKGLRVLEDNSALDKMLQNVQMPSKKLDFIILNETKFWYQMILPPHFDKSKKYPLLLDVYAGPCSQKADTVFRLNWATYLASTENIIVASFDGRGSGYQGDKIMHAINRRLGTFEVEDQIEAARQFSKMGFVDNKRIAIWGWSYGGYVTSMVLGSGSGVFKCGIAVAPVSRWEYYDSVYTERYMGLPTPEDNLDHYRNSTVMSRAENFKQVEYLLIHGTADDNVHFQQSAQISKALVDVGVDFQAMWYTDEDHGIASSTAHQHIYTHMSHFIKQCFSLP

With `CCOC(=O)C1=C(C)NC(=O)NC1c1ccc(Nc2cccc3c2C(=O)c2ccccc2C3=O)cc1` (configuration not stated) the IC50 [1] was 24.23 mg/L (≈ 50.3 µM).
For `CN(C)/C(N)=N/c1nc(-c2ccccc2)cc(-c2c[nH]c3ccccc23)n1`, the IC50 [2] was 55.98 mg/L (≈ 157 µM) and the IC50 [3] was 49.5 mg/L (≈ 139 µM).
For `Nc1nc(NC2=NC(c3ccccc3)=CC(c3cccc([N+](=O)[O-])c3)N2)nc(N2CCOCC2)n1` (configuration not stated), the IC50 (Dipeptidyl peptidase 4 [4]) was 0.0029 µM.
`O=C(SC1=NC(c2ccc(Cl)cc2)=CC(c2ccc([N+](=O)[O-])cc2)N1)c1ccccc1CN1C(=O)c2ccccc2C1=O` (configuration not stated) gave an IC50 (Dipeptidyl peptidase 4 [5]) of 0.00051 µM.
`C[C@H]1O[C@H](O[C@H]2[C@H](O)[C@@H](O)[C@@H](O[C@H]3[C@H](O)[C@@H](O)C(O)O[C@@H]3CO)O[C@@H]2CO)[C@H](O)[C@@H](O)[C@@H]1N[C@H]1C=C(CO)[C@@H](O)[C@H](O)[C@H]1O` (some centres not stated) [ACARBOSE] gave an IC50 [6] of 9.32 µM and an IC50 [7] of 7.2 µM.
